From patent US10508111B2, “6-[5-amino-6-(2-ethoxyethoxy)-imidazo[4,5-B]pyridin-3-yl]-nicotinonitrile derivatives and their use as IRAK inhibitors” (GALAPAGOS NV, priority 2015, dated 2019)
pIC50: −log10 of the molar value.

Assays:
Type in all cases: biochemical
human IRAK-4 = target: T1, human IRAK-4 (Homo sapiens, UniProt Q9NWZ3); assay: IC50 determination for human IRAK-4, radioactive filter plate assay; conditions: RIP140 substrate, 1 μM ATP + [γ-33P]ATP, 30° C., 45 min; read-out: hIRAK-4 IC50
T1 construct: purchased Carna Biosciences 09-145
T1 sequence (Q9NWZ3 1-460): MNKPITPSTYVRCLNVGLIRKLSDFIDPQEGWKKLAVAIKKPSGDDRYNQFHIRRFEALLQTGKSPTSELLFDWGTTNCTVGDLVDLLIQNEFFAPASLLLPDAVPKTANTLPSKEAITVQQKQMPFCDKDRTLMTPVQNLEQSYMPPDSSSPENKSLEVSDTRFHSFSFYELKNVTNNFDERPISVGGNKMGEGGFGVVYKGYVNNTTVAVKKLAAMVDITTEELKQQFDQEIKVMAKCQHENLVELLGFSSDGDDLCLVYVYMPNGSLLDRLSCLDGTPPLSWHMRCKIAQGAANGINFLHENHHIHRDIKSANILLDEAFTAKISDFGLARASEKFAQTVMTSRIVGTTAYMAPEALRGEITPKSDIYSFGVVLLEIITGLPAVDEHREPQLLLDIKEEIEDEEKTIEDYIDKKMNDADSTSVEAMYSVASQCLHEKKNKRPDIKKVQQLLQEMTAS
Protocol: The IC50 value for IRAK-4 is determined in a radioactive filter plate assay. The principle of the assay consists in the measurement of incorporated ^33P into the RIP140 substrate upon phosphorylation by the enzyme IRAK-4 using [γ-^33P]ATP and ATP. Unincorporated ^33P is removed by loading the samples on a filter plate (using a harvester, PerkinElmer) and 6 subsequent washing steps. Incorporated ^33P in RIP140 is measured by a scintillation counter (Topcount, PerkinElmer) after addition of MicroScint™-20 (PerkinElmer, 6013621) to the filter plates.
5 μL of a water dilution series of test compound (starting from 20 μM or 6.6 μM highest concentration), from a 100% DMSO stock solution, 1/5 dilution, is added to the wells (final DMSO concentration of 1% in reaction assay). IRAK-4 (Carna Biosciences, 09-145) and RIP140 (SEQ ID1, cf. Table VII) are used at a final concentration of 10 ng/mL and 4 μM, respectively. The enzyme and substrate are diluted in 25 mM Tris pH 7.5, 0.025% Triton X-100, 5 mM MnCl2, and 2 mM DTT to a total volume of 11 μL. The reaction is started by addition of 9 μL of 1 μM ATP (Sigma, A6419-5G)+0.25 μCi [γ-^33P]ATP (PerkinElmer, NEG602K001MC), diluted in the same buffer as enzyme and substrate. The mixture is incubated at 30° C. for 45 min. The reaction is terminated by adding 25 μL of 150 mM phosphoric acid (VWR, 1.00573.1000). Samples are transferred to filter plates and incorporated radioactivity is measured using a scintillation counter.
(§1) 10 μM staurosporine (1% DMSO) is used as positive control (100% inhibition); vehicle (water+1% DMSO) as negative control (0% inhibition).

CDK2 = target: T2, CDK2 (Homo sapiens, UniProt P24941); assay: Kinase selectivity profiling (focused panel), radioactive filter plate assay: CDK2; conditions: Histone H1-derived peptide, 0.1 μM ATP, 60 min
T2 construct: purchased Carna Biosciences 04-103
Protocol: (§2) The purpose of this assay is to determine the activity and selectivity of a compound of the invention on a selected range of human kinases which may result in undesirable side-effects when inhibited (Dy & Adjei 2013; Force & Kolaja 2011).
(§3) The IC50 value for off-target kinases is determined in radioactive filter plate assays. The principle of the assays consists in the measurement of incorporated ^33P into a peptide substrate upon phosphorylation by the kinase enzyme using [γ-^33P]ATP and ATP. Unincorporated ^33P is removed by loading the samples on a filter plate (using a harvester, PerkinElmer) and 6 subsequent washing steps. Incorporated ^33P in the peptide substrate is measured by a scintillation counter (Topcount, PerkinElmer) after addition of MicroScint™-20 (PerkinElmer, 6013621) to the filter plates.
(§4) 5 μL of a water dilution series of test compound (starting from 20 μM or 6.6 μM highest concentration), from a 100% DMSO stock solution, 1/5 dilution, is added to the wells (final DMSO concentration of 1% in reaction assay). Enzyme and peptide substrate are used at optimized concentrations (cf. Table VI). The enzyme and substrate are diluted in assay buffer to a total volume of 11 μL. The reaction is started by addition of 9 μL of ATP+[γ-^33P]ATP, diluted in the same buffer as enzyme and substrate. The mixture is incubated at 30° C. The reaction is terminated by adding 25 μL of 150 mM phosphoric acid. Samples are transferred to filter plates and incorporated radioactivity is measured using a scintillation counter.
(§5) The incubation time, assay buffer composition, and concentrations of ATP, enzyme and substrate are reported in Table VI for example kinase off-target assays.
as §1

CDK9 = target: T3, CDK9 (Homo sapiens, UniProt P50750); assay: Kinase selectivity profiling (focused panel), radioactive filter plate assay: CDK9; conditions: PDKtide, 0.25 μM ATP, 60 min
T3 construct: purchased Millipore 14-685
T3 sequence (P50750 whole entry): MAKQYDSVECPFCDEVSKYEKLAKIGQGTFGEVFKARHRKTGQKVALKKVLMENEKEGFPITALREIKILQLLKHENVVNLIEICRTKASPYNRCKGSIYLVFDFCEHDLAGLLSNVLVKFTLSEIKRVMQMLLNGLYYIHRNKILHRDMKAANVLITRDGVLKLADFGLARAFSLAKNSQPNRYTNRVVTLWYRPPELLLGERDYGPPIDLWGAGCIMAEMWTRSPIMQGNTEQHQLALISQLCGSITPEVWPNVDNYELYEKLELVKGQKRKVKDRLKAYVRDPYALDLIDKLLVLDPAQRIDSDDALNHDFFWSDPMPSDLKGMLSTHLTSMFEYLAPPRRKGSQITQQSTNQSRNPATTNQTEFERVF
T3 sequence (O60563 whole entry partner): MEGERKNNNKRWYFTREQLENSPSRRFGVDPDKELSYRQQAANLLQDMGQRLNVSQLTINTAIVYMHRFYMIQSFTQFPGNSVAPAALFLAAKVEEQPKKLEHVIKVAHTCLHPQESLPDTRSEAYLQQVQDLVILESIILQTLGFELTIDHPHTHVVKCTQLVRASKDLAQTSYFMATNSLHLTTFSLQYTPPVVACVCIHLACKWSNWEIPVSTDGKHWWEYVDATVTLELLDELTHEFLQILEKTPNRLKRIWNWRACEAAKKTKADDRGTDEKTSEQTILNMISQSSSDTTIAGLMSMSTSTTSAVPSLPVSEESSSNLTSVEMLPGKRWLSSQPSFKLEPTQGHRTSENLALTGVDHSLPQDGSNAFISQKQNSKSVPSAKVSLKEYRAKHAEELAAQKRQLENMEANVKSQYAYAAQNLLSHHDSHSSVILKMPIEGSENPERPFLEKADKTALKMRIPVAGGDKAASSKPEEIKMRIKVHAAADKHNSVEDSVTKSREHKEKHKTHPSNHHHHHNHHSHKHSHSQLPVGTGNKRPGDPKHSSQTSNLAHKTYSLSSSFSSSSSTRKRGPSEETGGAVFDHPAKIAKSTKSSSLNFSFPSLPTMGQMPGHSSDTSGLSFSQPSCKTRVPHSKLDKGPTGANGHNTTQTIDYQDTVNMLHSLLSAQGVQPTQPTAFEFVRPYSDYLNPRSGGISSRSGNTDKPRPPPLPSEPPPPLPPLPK
Protocol: as §2, §3, §4, §5, §1

GSK3b = target: T4, GSK3b (Homo sapiens, UniProt P49841); assay: Kinase selectivity profiling (focused panel), radioactive filter plate assay: GSK3b; conditions: Phospho glycogen synthase peptide2, 1.5 μM ATP, 90 min
T4 construct: purchased Carna Biosciences 04-141
T4 sequence (P49841 whole entry): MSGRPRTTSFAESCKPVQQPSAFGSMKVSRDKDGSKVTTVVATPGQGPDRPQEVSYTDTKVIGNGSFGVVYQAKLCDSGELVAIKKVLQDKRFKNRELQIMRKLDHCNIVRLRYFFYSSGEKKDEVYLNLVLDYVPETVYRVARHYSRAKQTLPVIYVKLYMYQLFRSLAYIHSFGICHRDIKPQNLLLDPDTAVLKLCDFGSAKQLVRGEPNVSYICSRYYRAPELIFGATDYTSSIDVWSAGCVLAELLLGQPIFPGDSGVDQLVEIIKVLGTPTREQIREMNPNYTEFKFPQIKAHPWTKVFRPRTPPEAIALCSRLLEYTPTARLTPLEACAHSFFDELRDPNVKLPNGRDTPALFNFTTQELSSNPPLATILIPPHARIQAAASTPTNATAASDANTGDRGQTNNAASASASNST
Protocol: as §2, §3, §4, §5, §1

c-SRC = target: T5, c-SRC (Homo sapiens, UniProt P12931); assay: Kinase selectivity profiling (focused panel), radioactive filter plate assay: c-SRC; conditions: PolyGT substrate, 0.25 μM ATP, 60 min
T5 construct: purchased Carna Biosciences 08-173
T5 sequence (P12931 whole entry): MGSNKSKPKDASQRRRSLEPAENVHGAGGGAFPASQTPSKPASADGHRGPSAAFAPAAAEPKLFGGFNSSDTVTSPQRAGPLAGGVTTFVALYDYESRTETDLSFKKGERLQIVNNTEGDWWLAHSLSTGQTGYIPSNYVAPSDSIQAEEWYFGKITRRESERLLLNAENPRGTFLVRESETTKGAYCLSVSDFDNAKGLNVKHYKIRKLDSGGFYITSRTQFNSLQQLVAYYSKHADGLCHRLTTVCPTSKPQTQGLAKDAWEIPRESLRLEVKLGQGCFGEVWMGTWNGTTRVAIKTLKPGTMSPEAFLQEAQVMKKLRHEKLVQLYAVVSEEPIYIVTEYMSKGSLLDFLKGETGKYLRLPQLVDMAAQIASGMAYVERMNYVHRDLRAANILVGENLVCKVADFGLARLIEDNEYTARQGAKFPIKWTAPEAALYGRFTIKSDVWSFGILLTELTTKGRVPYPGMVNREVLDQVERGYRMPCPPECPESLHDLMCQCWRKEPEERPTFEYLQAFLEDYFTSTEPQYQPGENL
Protocol: as §2, §3, §4, §5, §1

ABL = target: T6, ABL (Homo sapiens, UniProt P00519); assay: Kinase selectivity profiling (focused panel), radioactive filter plate assay: ABL; conditions: PolyGT substrate, 0.5 μM ATP, 60 min
T6 construct: purchased Life Technologies P3049
T6 sequence (P00519 whole entry): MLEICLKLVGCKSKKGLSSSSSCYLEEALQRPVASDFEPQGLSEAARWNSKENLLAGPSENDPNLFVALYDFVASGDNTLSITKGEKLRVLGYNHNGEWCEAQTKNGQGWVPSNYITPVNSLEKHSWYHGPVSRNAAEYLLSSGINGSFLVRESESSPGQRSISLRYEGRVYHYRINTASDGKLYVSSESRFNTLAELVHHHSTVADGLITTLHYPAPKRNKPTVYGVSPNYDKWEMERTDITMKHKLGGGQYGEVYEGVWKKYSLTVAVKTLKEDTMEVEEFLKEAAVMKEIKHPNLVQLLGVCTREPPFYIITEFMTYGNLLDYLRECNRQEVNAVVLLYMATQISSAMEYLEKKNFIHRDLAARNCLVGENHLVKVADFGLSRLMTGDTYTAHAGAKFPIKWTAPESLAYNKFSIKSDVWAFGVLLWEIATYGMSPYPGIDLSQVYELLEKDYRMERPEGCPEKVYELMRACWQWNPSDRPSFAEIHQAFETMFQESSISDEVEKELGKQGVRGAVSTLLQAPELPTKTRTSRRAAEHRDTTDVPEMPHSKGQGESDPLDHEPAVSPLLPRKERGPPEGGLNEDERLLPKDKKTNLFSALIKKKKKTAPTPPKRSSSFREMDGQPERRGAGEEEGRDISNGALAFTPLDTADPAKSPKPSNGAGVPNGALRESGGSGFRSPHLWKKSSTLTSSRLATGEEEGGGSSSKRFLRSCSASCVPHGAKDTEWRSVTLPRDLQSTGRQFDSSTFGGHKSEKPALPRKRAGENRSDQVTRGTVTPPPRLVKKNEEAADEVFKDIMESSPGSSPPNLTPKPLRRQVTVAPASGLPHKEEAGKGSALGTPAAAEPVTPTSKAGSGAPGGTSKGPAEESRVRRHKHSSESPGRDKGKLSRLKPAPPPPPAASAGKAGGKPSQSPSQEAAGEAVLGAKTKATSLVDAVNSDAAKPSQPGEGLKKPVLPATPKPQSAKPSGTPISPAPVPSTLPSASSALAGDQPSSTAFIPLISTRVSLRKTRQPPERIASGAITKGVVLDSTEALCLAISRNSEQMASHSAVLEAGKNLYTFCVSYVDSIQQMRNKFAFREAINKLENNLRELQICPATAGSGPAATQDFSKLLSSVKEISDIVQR
Protocol: as §2, §3, §4, §5, §1

| SMILES | pIC50 (human IRAK-4) | pIC50 (CDK2) | pIC50 (CDK9) | pIC50 (GSK3b) | pIC50 (c-SRC) | pIC50 (ABL) |
| --- | --- | --- | --- | --- | --- | --- |
| N#Cc1ccc(-n2cnc3cc(OCCOCCO)c(NC4CCS(=O)(=O)CC4)nc32)nc1 [Compound 2, 6-{5-(1,1-dioxo-tetrahydro-2H-thiopyran-4-ylamino)-6-[2-(2-hydroxy-ethoxy)-ethoxy]-imidazo[4,5-b]pyridin-3-yl}-nicotinonitrile] | 7.60 | < 5.88 | 6.15 | < 5.88 | < 5.88 |  |
| CN(c1nc2c(cc1OCCOCCO)ncn2-c1ccc(C#N)cn1)[C@H]1CC[C@@](C)(O)CC1 [Compound 3, 6-{6-[2-(2-hydroxy-ethoxy)-ethoxy]-5-[((cis-1,4)-4-hydroxy-4-methyl-cyclohexyl)-methyl-amino]-imidazo[4,5-b]pyridin-3-yl}-nicotinonitrile] | 7.66 |  |  |  |  |  |
| COCCOCCOc1cc2ncn(-c3ccc(C#N)cn3)c2nc1N(C)C1CCOCC1 [Compound 4, 6-{6-[2-(2-methoxy-ethoxy)-ethoxy]-5-[methyl-(tetrahydro-pyran-4-yl)-amino]-imidazo[4,5-b]pyridin-3-yl}-nicotinonitrile] | 6.28 |  |  |  |  |  |
| COCCOCCOc1cc2ncn(-c3ccc(C#N)cn3)c2nc1NC1CCOCC1 [Compound 5, 6-[6-[2-(2-methoxy-ethoxy)-ethoxy]-5-(tetrahydro-pyran-4-ylamino)-imidazo[4,5-b]pyridin-3-yl]-nicotinonitrile] | 7.86 | < 5.40 | 5.64 | < 5.40 | < 5.53 | 5.57 |
| N#Cc1ccc(-n2cnc3cc(OCCOCCO)c(NC4CCCC(O)C4)nc32)nc1 (centres unmarked) [Compound 6, 6-{5-(3-hydroxy-cyclohexylamino)-6-[2-(2-hydroxy-ethoxy)-ethoxy]-imidazo[4,5-b]pyridin-3-yl}-nicotinonitrile] | 8.31 | 5.57 | 5.99 | < 5.40 | 6.12 | 6.18 |

Second part, the compound after the results:

| pIC50 (human IRAK-4) | pIC50 (CDK2) | pIC50 (CDK9) | pIC50 (GSK3b) | pIC50 (c-SRC) | pIC50 (ABL) | SMILES |
| --- | --- | --- | --- | --- | --- | --- |
| 7.84 | < 5.88 | 6.08 | < 5.88 | < 5.88 |  | N#Cc1ccc(-n2cnc3cc(OCCOCCO)c(N[C@@H]4COCC[C@@H]4O)nc32)nc1 (relative stereo) [Compound 11, 6-[6-[2-(2-hydroxyethoxy)ethoxy]-5-[[(cis-3,4)-4-hydroxytetrahydropyran-3-yl]amino]imidazo[4,5-b]pyridin-3-yl]pyridine-3-carbonitrile] |
| 7.84 |  |  |  |  |  | N#Cc1ccc(-n2cnc3cc(OCCOCCO)c(NC4CCC(F)(F)CC4)nc32)nc1 [Compound 7, 6-{5-(4,4-difluoro-cyclohexylamino)-6-[2-(2-hydroxy-ethoxy)-ethoxy]-imidazo[4,5-b]pyridin-3-yl}-nicotinonitrile] |
| 7.29 |  |  |  |  |  | N#Cc1ccc(-n2cnc3cc(OCCOCCOS(=O)(=O)O)c(NC4CCOCC4)nc32)nc1 [Compound 8, sulfuric acid mono-(2-{2-[3-(5-cyano-pyridin-2-yl)-5-(tetrahydro-pyran-4-ylamino)-3H-imidazo[4,5-b]pyridin-6-yloxy]-ethoxy}-ethyl) ester] |
| 7.87 | < 5.40 | 6.19 | 5.49 | 6.54 | 6.20 | CC(C)[C@H](N)C(=O)OCCOCCOc1cc2ncn(-c3ccc(C#N)cn3)c2nc1NC1CCOCC1 [Compound 9, (S)-2-amino-3-methyl-butyric acid 2-{2-[3-(5-cyano-pyridin-2-yl)-5-(tetrahydro-pyran-4-ylamino)-3H-imidazo[4,5-b]pyridin-6-yloxy]-ethoxy}-ethyl ester] |
| 7.41 |  |  |  |  |  | COCCOCCOc1cc2ncn(-c3ccc(C#N)cn3)c2nc1N(C)[C@H]1CC[C@@](C)(O)CC1 [Compound 13, 6-[5-[((cis-1,4)-4-hydroxy-4-methyl-cyclohexyl)-methyl-amino]-6-[2-(2-methoxyethoxy)ethoxy]imidazo[4,5-b]pyridin-3-yl]pyridine-3-carbonitrile] |
| 8.46 | 5.86 | 5.86 | 5.65 | 6.50 |  | COCCOCCOc1cc2ncn(-c3ccc(C#N)cn3)c2nc1N[C@H]1CC[C@@](C)(O)CC1 [Compound 14, 6-[5-[((cis-1,4)-4-hydroxy-4-methylcyclohexyl)amino]-6-[2-(2-methoxyethoxy)ethoxy]imidazo[4,5-b]pyridin-3-yl]pyridine-3-carbonitrile] |
